Laboratory results from ChEMBL document CHEMBL3885881, “DrugMatrix”.

Species: Rattus norvegicus
Assay: DrugMatrix - Regimen: Daily Repeat
Type: toxicity, organism-based, Sprague-Dawley
Parameters: regimen Daily Repeat, gender Male, age 6-8 weeks
Conditions: in vivo, po, route oral GAVAGE, […]; for ABSOLUTE BASOPHIL / ABSOLUTE EOSINOPHIL / ABSOLUTE LYMPHOCYTE / ABSOLUTE MONOCYTE / ABSOLUTE SEGMENTED NEUTROPHIL / BASOPHIL / EOSINOPHIL / ERYTHROCYTE COUNT / HEMATOCRIT / HEMOGLOBIN / LEUKOCYTE COUNT / LYMPHOCYTE / MEAN CORPUSCULAR HEMOGLOBIN / MEAN CORPUSCULAR HEMOGLOBIN CONCENTRATION / MEAN CORPUSCULAR VOLUME / MONOCYTE / NEUTROPHIL / NUCLEATED RED BLOOD CELLS / PLATELET COUNT: tissue Blood; for ALANINE AMINOTRANSFERASE / ALBUMIN / ALKALINE PHOSPHATASE / ASPARTATE AMINOTRANSFERASE / BLOOD UREA NITROGEN / CARBON DIOXIDE / CHLORIDE / CHOLESTEROL / CREATINE PHOSPHOKINASE / CREATININE / GLUCOSE / LACTATE DEHYDROGENASE / LIPASE / POTASSIUM / SODIUM / TOTAL BILIRUBIN / TOTAL PROTEIN / URIC ACID: tissue Plasma
[1] = 300 mg/kg, 72 h, dose level M1, time 3 day
[2] = 300 mg/kg, 120 h, dose level M1, time 5 day
[3] = 1500 mg/kg, 72 h, dose level High, time 3 day
[4] = 1500 mg/kg, 120 h, dose level High, time 5 day

CCc1ccc(CCOc2ccc(CC3SC(=O)NC3=O)cc2)nc1 (stereo not drawn) [PIOGLITAZONE]
ABSOLUTE BASOPHIL [1]: 0 CELLS/uL
ABSOLUTE EOSINOPHIL [1]: 0 CELLS/uL
ABSOLUTE LYMPHOCYTE [1]: 15172.67 CELLS/uL
ABSOLUTE MONOCYTE [1]: 43 CELLS/uL
ABSOLUTE SEGMENTED NEUTROPHIL [1]: 1184.33 CELLS/uL
BASOPHIL [1]: 0%
EOSINOPHIL [1]: 0%
ERYTHROCYTE COUNT [1]: 4.93 x10E6/uL
HEMATOCRIT [1]: 32.73%
HEMOGLOBIN [1]: 13 G/DL
LEUKOCYTE COUNT [1]: 16.4 x10E3/uL
LYMPHOCYTE [1]: 92.33%
MEAN CORPUSCULAR HEMOGLOBIN [1]: 26.4 pg
MEAN CORPUSCULAR HEMOGLOBIN CONCENTRATION [1]: 39.73 G/DL
MEAN CORPUSCULAR VOLUME [1]: 66.4 fL
MONOCYTE [1]: 0.33%
NEUTROPHIL [1]: 7.33%
NUCLEATED RED BLOOD CELLS [1]: 0.67 /100WBC
PLATELET COUNT [1]: 1282 x10E3/uL
ALANINE AMINOTRANSFERASE [1]: 81.33 u/L
ALBUMIN [1]: 4.1 G/DL
ALKALINE PHOSPHATASE [1]: 504.67 u/L
ASPARTATE AMINOTRANSFERASE [1]: 92 u/L
BLOOD UREA NITROGEN [1]: 13.67 mg/dL
CARBON DIOXIDE [1]: 34 mmol/L
CHLORIDE [1]: 103.33 MEQ/L
CHOLESTEROL [1]: 58.33 mg/dL
CREATINE PHOSPHOKINASE [1]: 248.33 u/L
CREATININE [1]: 0.22 mg/dL
GLUCOSE [1]: 137 mg/dL
LACTATE DEHYDROGENASE [1]: 98 u/L
LIPASE [1]: 10.67 u/L
POTASSIUM [1]: 6.5 MEQ/L
SODIUM [1]: 143.9 MEQ/L
TOTAL BILIRUBIN [1]: 0.1 mg/dL
TOTAL PROTEIN [1]: 5.47 G/DL
URIC ACID [1]: 1.27 mg/dL
ABSOLUTE BASOPHIL [2]: 0 CELLS/uL
ABSOLUTE EOSINOPHIL [2]: 0 CELLS/uL
ABSOLUTE LYMPHOCYTE [2]: 12765 CELLS/uL
ABSOLUTE MONOCYTE [2]: 138.67 CELLS/uL
ABSOLUTE SEGMENTED NEUTROPHIL [2]: 829.67 CELLS/uL
BASOPHIL [2]: 0%
EOSINOPHIL [2]: 0%
ERYTHROCYTE COUNT [2]: 4.76 x10E6/uL
HEMATOCRIT [2]: 31.27%
HEMOGLOBIN [2]: 12.9 G/DL
LEUKOCYTE COUNT [2]: 13.73 x10E3/uL
LYMPHOCYTE [2]: 93%
MEAN CORPUSCULAR HEMOGLOBIN [2]: 27.17 pg
MEAN CORPUSCULAR HEMOGLOBIN CONCENTRATION [2]: 41.37 G/DL
MEAN CORPUSCULAR VOLUME [2]: 65.73 fL
MONOCYTE [2]: 1%
NEUTROPHIL [2]: 6%
NUCLEATED RED BLOOD CELLS [2]: 0.67 /100WBC
PLATELET COUNT [2]: 1095.33 x10E3/uL
ALANINE AMINOTRANSFERASE [2]: 71.67 u/L
ALBUMIN [2]: 4.07 G/DL
ALKALINE PHOSPHATASE [2]: 406.67 u/L
ASPARTATE AMINOTRANSFERASE [2]: 102.33 u/L
BLOOD UREA NITROGEN [2]: 14.33 mg/dL
CARBON DIOXIDE [2]: 33.33 mmol/L
CHLORIDE [2]: 101.33 MEQ/L
CHOLESTEROL [2]: 56.67 mg/dL
CREATINE PHOSPHOKINASE [2]: 223.67 u/L
CREATININE [2]: 0.16 mg/dL
GLUCOSE [2]: 150.33 mg/dL
LACTATE DEHYDROGENASE [2]: 224.33 u/L
LIPASE [2]: 10.33 u/L
POTASSIUM [2]: 5.99 MEQ/L
SODIUM [2]: 143.9 MEQ/L
TOTAL BILIRUBIN [2]: 0.1 mg/dL
TOTAL PROTEIN [2]: 5.73 G/DL
URIC ACID [2]: 1.43 mg/dL
ABSOLUTE BASOPHIL [3]: 0 CELLS/uL
ABSOLUTE EOSINOPHIL [3]: 0 CELLS/uL
ABSOLUTE LYMPHOCYTE [3]: 8411 CELLS/uL
ABSOLUTE MONOCYTE [3]: 92.33 CELLS/uL
ABSOLUTE SEGMENTED NEUTROPHIL [3]: 1396.67 CELLS/uL
BASOPHIL [3]: 0%
EOSINOPHIL [3]: 0%
ERYTHROCYTE COUNT [3]: 4.68 x10E6/uL
HEMATOCRIT [3]: 29.23%
HEMOGLOBIN [3]: 11.2 G/DL
LEUKOCYTE COUNT [3]: 9.9 x10E3/uL
LYMPHOCYTE [3]: 84.33%
MEAN CORPUSCULAR HEMOGLOBIN [3]: 23.93 pg
MEAN CORPUSCULAR HEMOGLOBIN CONCENTRATION [3]: 38.27 G/DL
MEAN CORPUSCULAR VOLUME [3]: 62.47 fL
MONOCYTE [3]: 1%
NEUTROPHIL [3]: 14.67%
NUCLEATED RED BLOOD CELLS [3]: 0.33 /100WBC
PLATELET COUNT [3]: 1023.33 x10E3/uL
ALANINE AMINOTRANSFERASE [3]: 85.67 u/L
ALBUMIN [3]: 3.97 G/DL
ALKALINE PHOSPHATASE [3]: 537.33 u/L
ASPARTATE AMINOTRANSFERASE [3]: 97.67 u/L
BLOOD UREA NITROGEN [3]: 12.33 mg/dL
CARBON DIOXIDE [3]: 34.67 mmol/L
CHLORIDE [3]: 101 MEQ/L
CHOLESTEROL [3]: 67 mg/dL
CREATINE PHOSPHOKINASE [3]: 311.67 u/L
CREATININE [3]: 0.36 mg/dL
GLUCOSE [3]: 131 mg/dL
LACTATE DEHYDROGENASE [3]: 114.33 u/L
LIPASE [3]: 9.67 u/L
POTASSIUM [3]: 5.48 MEQ/L
SODIUM [3]: 145 MEQ/L
TOTAL BILIRUBIN [3]: 0.1 mg/dL
TOTAL PROTEIN [3]: 5.57 G/DL
URIC ACID [3]: 0.67 mg/dL
ABSOLUTE BASOPHIL [4]: 0 CELLS/uL
ABSOLUTE EOSINOPHIL [4]: 36.67 CELLS/uL
ABSOLUTE LYMPHOCYTE [4]: 8937 CELLS/uL
ABSOLUTE MONOCYTE [4]: 131.33 CELLS/uL
ABSOLUTE SEGMENTED NEUTROPHIL [4]: 1128.33 CELLS/uL
BASOPHIL [4]: 0%
EOSINOPHIL [4]: 0.33%
ERYTHROCYTE COUNT [4]: 4.76 x10E6/uL
HEMATOCRIT [4]: 30.03%
HEMOGLOBIN [4]: 11.5 G/DL
LEUKOCYTE COUNT [4]: 10.23 x10E3/uL
LYMPHOCYTE [4]: 87.33%
MEAN CORPUSCULAR HEMOGLOBIN [4]: 24.2 pg
MEAN CORPUSCULAR HEMOGLOBIN CONCENTRATION [4]: 38.3 G/DL
MEAN CORPUSCULAR VOLUME [4]: 63.17 fL
MONOCYTE [4]: 1.33%
NEUTROPHIL [4]: 11%
NUCLEATED RED BLOOD CELLS [4]: 0 /100WBC
PLATELET COUNT [4]: 962 x10E3/uL
ALANINE AMINOTRANSFERASE [4]: 56.33 u/L
ALBUMIN [4]: 3.93 G/DL
ALKALINE PHOSPHATASE [4]: 338.67 u/L
ASPARTATE AMINOTRANSFERASE [4]: 80 u/L
BLOOD UREA NITROGEN [4]: 13.67 mg/dL
CARBON DIOXIDE [4]: 33.67 mmol/L
CHLORIDE [4]: 101 MEQ/L
CHOLESTEROL [4]: 62.67 mg/dL
CREATINE PHOSPHOKINASE [4]: 366 u/L
CREATININE [4]: 0.36 mg/dL
GLUCOSE [4]: 140.67 mg/dL
LACTATE DEHYDROGENASE [4]: 107.33 u/L
LIPASE [4]: 8.67 u/L
POTASSIUM [4]: 5.6 MEQ/L
SODIUM [4]: 144.53 MEQ/L
TOTAL BILIRUBIN [4]: 0.17 mg/dL
TOTAL PROTEIN [4]: 5.47 G/DL
URIC ACID [4]: 0.63 mg/dL
